Tested on: influenza virus
Format: cell-based

## Heparin
  viral activity after 1/100 dilution (virucidal activity): recovery in viral activity
